Here are results for two compounds from US7102000B2, “Heterocyclic amide derivatives for the treatment of diabetes and other diseases” (Incyte San Diego Inc., priority 2002, dated 2006).

Data set [1] concerns Mouse pre-adipocyte 3T3-L1 cells. In words: Differentiation of 3T3-L1 pre-adipocytes in an in vitro assay (lipid content). The data set is classed as cell-based. To be noted: 0.1 μM, 7 days; taken as reference. Here is the method: The compounds of the invention have been screened in an in-vitro adipocyte differentiation assay, as described in Example 26. Mouse pre-adipocyte 3T3-L1 cells were treated with compounds at concentrations less than or equal to 10^−6 M for 7 days.
The compounds can be considered active for adipocyte differentiation if the lipid accumulation induced is at least about 20%, or at least about 40% of the lipid accumulation induced by 5-[3-(3,5,5,8,8-Pentamethyl-5,6,7,8-tetrahydro-naphthalen-2-yl)-4-trifluoromethoxy-benzylidene]-thiazolidine-2,4-dione when it is applied to control cultures of mouse preadipocyte 3T3-L1 cells at a concentration of about 1×10^−7 M.
The following protocol was used to determine adipocyte differentiation activity of the compounds of the invention: Mouse pre-adipocyte 3T3-L1 cells obtained from ATCC (American Tissue Culture Collection, MD) were initially grown in DME Dulbecco's modified Eagle's medium containing 4500 mg/L glucose; 4 mM L-glutamine; 10 U/ml Pen-G; 10 mcg/ml Streptomycin and 10% Bovine Calf Serum (CS) at 37° C. and 10% CO2. Cells were plated in 96 well plates at a density of approximately 3,000 cells/well and grown to confluence (when cells use 100% of the available space on the well) in the same medium. […] The cellular lysates were analyzed for their lipid content using the Triglyceride-GPO Trinder reagent from Sigma.

Data set [2] shares this test system. The following applies: stated as previously shown; cited from earlier work.
Data set [3] can be described thus: Oral bioavailability, single dose pharmacokinetic study in rats (plasma concentration by HPLC). The following applies: rat; for concentration of compound in plasma: single oral dose 10 mg/kg in 10% HPβCD, 0.5–26 hours, FIG. 7. In kind it is in vivo, Sprague Dawley rats. The text has this: Oral bioavailability is an important pharmaceutical characteristic for a compound to advance through drug development. A basic assessment of the oral bioavailability of a compound can be done in a single dose pharmacokinetic study in wild type rats.
Six to eight week-old male Sprague Dawley rats (Harlan) were housed in a fixed 12–12- hr artificial light-dark cycle, and maintained on a standard rodent diet provided ad libitum. Animals were allowed two days to acclimate in this experimental environment prior to the initiation of the study. Compounds 24 and 25 were dissolved in a 10% hydroxypropyl beta cyclodextrin solution and administered by oral gavage in a final dose of 10 mg/kg in a volume of 5 ml/kg. Treatment groups were divided as follows:
Treatment groups(n=3/group): • 1) Compound 24 (10 mg/kg) • 2) Compound 25 (10 mg/kg)
Each animal received a single treatment, after which, the animal was bled from the tail vein at the following time points: 0.5, 1, 2, 4, 6, 9, 12, and 26 hours after treatment. To measure the concentration of each compound in plasma, blood samples were collected in heparin-coated tubes, and the plasma was isolated and analyzed by HPLC.

Data set [4] relates to carcinogen induced mammary tumors. Description: Progression of carcinogen induced mammary tumors in Sprague Dawley rats. In kind it is in vivo, rat. The following applies: oral once daily for four weeks. As to the method:
Procedure: Five week-old female Sprague Dawley rats (Harlan) were housed in a fixed 12–12-hr artificial light-dark cycle, and maintained on a standard rodent diet provided ad libitum. Animals were allowed two days to acclimate in this experimental environment prior to the initiation of the study.
To induce mammary tumors, the female […] were injected intraperitoneally with the carcinogen n-nitroso-n-methylurea, in a single dose of 50 mg/kg in acidified normal saline (pH 4 w/acetic acid) at a final volume of 10 mg/ml (5 ml/kg). After eight weeks, mammary tumors are detected, and the tumor bearing females are sorted into treatment groups. Once sorted, the animals were housed four per cage and provided rodent diet ad libitum. All animals are treated with compound 1 or a vehicle for four weeks, during which time changes in tumor size are monitored. Tumors were classified as regressing, static or progressing.
Treatment groups (n=8/group): • 1) Control (sesame oil) • 2) Compound 6 (20 mg/kg) • 3) Compound 11 (100 mg/kg) • 4) Compound 13 (50 mg/kg) • 5) Compound 24 (50 mg/kg) • 6) Compound 25 (20 mg/kg) • 7) Compound 25 (100 mg/kg)
All of the compounds tested were suspended in sesame oil, and administered to animals in a volume of 3 ml/kg/dose, except compound 25 which was dissolved in a 10% hydroxy propyl beta cyclodextrin solution, and administered to animals in a volume of 10 ml/kg/dose. All treatments were administered by oral gavage once daily for four weeks.
To monitor the effect of the tested compound, animals were examined for mammary tumors once every week. Tumors were classified into one of three categories, progressing, static or regressing.

The subject of data set [5] is db/db mutant mice. Description: Oral treatment of type 2 diabetes in db/db mutant mice (serum glucose, triglyceride). In kind it is in vivo, mouse. Here is the method:
Experimental Procedure: Seven week-old female db/db mutant mice (C57BL/KsJ-db +/+m; Jackson Labs, Bar Harbour, Me.) were housed in a fixed 12—12-hr artificial light-dark cycle, and maintained on a standard high fat diet (containing at least 11% crude fat) provided ad libitum (Teklad S-2335). Animals were allowed two days to acclimate in this experimental environment prior to the initiation of the study. Prior to initiation of treatment, the animals were bled from the tail vein (100–200 μL of whole blood) and serum levels of glucose and triglycerides were measured in duplicate (Trinder kits; Sigma, St. Louis, Mo.). Based on these initial measures, animals were sorted into treatment groups with approximately the same average serum glucose levels. Once sorted, the animals were housed five per cage and provided high fat rodent diet ad libitum.
Treatment Groups (n=5/group): • 1) db/db control (CMC) • 2) Compound 25 (0.1 mg/kg, in CMC) • 3) Compound 25 (0.3 mg/kg, in CMC) • 4) Compound 25 (1 mg/kg, in CMC)
Compound 25 was suspended in a solution of carboxymethyl cellulose (CMC; 1% carboxy methyl cellulose in H2O, with 10% polyethelene glycol 400), and administered to animals in a volume of 5 ml/kg/dose. The drug is administered by oral gavage once daily at the beginning of the artificial light cycle.
To monitor the effect of the tested compounds, animals were bled following a three-hour fast at the end of the dark cycle on days 0, 7, 14 of the treatment period. Fasting serum glucose and triglyceride levels were measured in duplicate. The blood is kept at room temperature to allow coagulation, after which the serum is separated and. assayed for glucose and triglyceride levels.

Data set [6] has as its system KKA^y mice. Description: Oral treatment of type 2 diabetes in KKA^y mice (serum glucose, triglyceride, cholesterol). In kind it is in vivo, mouse. The following applies: KKA^y mice, 1, 3, 10 mg/kg oral in 10% HPβCD, following 4 weeks of treatment, FIG. 2e. The source says: The procedure for this in-vivo assay for anti-diabetes activity was described in detail by Iwatsuka, et al. (1970 General Survey of Diabetic Features of Yellow KK Mice. Endocrinol. Japon. 17: 23–35, incorporated herein in its entirety by reference).
Experimental Procedures: Six to eight week-old male KKA^y mice (obtained from Jackson Labs of Bar Harbord, Me.) were housed in a fixed 12–12-hr artificial light-dark cycle, and maintained on a standard rodent diet provided ad libitum. Animals were allowed two days to acclimate in this experimental environment prior to the initiation of the study.
Prior to initiation of treatment with the compounds of the invention, the animals were bled from the tail vein (100–200 μL of whole blood) and serum levels of glucose and triglycerides were measured in duplicate (Trinder kits; Sigma, St. Louis, Mo.). Based on these initial measures, animals were sorted into groups with approximately the same average serum glucose levels. Once sorted, the animals were housed one per cage and provided rodent diet ad libitum. Unless otherwise indicated, compounds were suspended in sesame oil, and administered by oral gavage once daily to animals in a volume of 3 ml/kg/dose.
Treatment Group A (n=5/group): (See Results in FIG. 2a) • 1) KKA^y vehicle control (sesame oil) • 2) Compound 1 (3 mg/kg) • 3) Compound 1 (10 mg/kg) • 4) Compound 2 (3 mg/kg) • 5) Compound 2 (10 mg/kg)
Treatment Group B (n=6/group): (See Results in FIG. 2b) • 1) KKA^y vehicle control (sesame oil) • 2) Compound 11 (15 mg/kg)
Treatment Group C (n=6/group): (See Results in FIG. 2c) • 1) KKA^y vehicle control (sesame oil) • 2) Compound 13 (15 mg/kg)
Treatment Group D (n=6/group): (See Results in FIG. 2d) • 1) KKA^y vehicle control (CMC) • 2) Compound 25 (3 mg/kg, CMC) Compound 25 was suspended in a solution of carboxymethyl cellulose (CMC; 1% carboxy methyl cellulose in H2O, with 10% polyethelene glycol 400), and administered to animals in a volume of 5 ml/kg/dose.
Treatment Group E (n=5/group): (See Results in FIG. 2e) • 1) KKA^y vehicle control (10% HPβCD) • 2) Compound 25 (1 mg/kg) • 3) Compound 25 (3 mg/kg) • 4) Compound 25 (10 mg/kg) Compound 25 was dissolved in a 10% hydroxy propyl beta cyclodextrin solution, and administered to animals in a volume of 10 ml/kg/dose.
Serum glucose, triglyceride and/or cholesterol levels were measured in duplicate. The blood is kept at room temperature to allow coagulation, after which the serum is separated and assayed for glucose, triglyceride and/or cholesterol levels. As shown in FIGS. 2a–2d all of the compounds tested reduced serum glucose and triglyceride levels, some with doses as low as 3 mg/kg when administered once a day.

[7] abbreviates: oral once daily in CMC, compared to control animals, FIG. 3.

Counter-ions that a name gives are not always drawn.

Regarding `Cc1cc2c(cc1-c1cc(/C=C3\SC(=O)NC3=O)ccc1OC(F)(F)F)C(C)(C)CCC2(C)C` [Compound 24, 5-[3-(3,5,5,8,8-Pentamethyl-5,6,7,8-tetrahydro-naphthalen-2-yl)-4-trifluoromethoxy-benzylidene]-thiazolidine-2,4-dione], the “differentiation of 3T3-L1 cells (lipid content), standard for differentiation activity” value in data set [1] is 100%. Besides, in data set [2], the “inducer of adipocyte differentiation” value was “potent inducer of adipocyte differentiation”. In data set [3], the “concentration of compound in plasma” value is “only detected as being present at near the limit of detection”.
As for `CCN1C(=O)CC(C)(C)c2cc(C)c(-c3cc(/C=C4\SC(=O)NC4=O)ccc3OC(F)(F)F)cc21` [Compound 25, 5-[3-(1-Ethyl-4,4,6-trimethyl-2-oxo-1,2,3,4-tetrahydro-quinolin-7-yl)-4-trifluoromethoxy-benzylidene]-thiazolidine-2,4-dione, TRIS Salt], in data set [4], the “dose causing regression of tumors (as low as)” value is listed as at least 20 mg/kg. In addition, the regression of tumors entry in data set [4] (FIG. 6) is given as “caused the regression of tumors”. Further, in data set [4] (vs vehicle treated controls, FIG. 6), the “growth / progression of mammary (breast cancer) tumors” value is given as “slow or cause regression”. In data set [5] (once daily oral), the “dose ameliorating the symptoms of diabetes (as low as)” value is on record as at least 0.3 mg/kg. Moreover, in data set [5] (setting [7]), the fasting serum glucose entry is listed as “reduced” and the fasting serum triglyceride result was “reduced”. Also, in data set [6], the serum glucose level result was “unexpectedly strong and simultaneous reduction”; the “serum total cholesterol level” value was “unexpectedly strong and simultaneous reduction”; the serum triglyceride level entry was “unexpectedly strong and simultaneous reduction”. In data set [3], the “concentration of compound in plasma” value was “significantly higher concentration”. The oral bioavailability result in data set [3] (single oral dose 10 mg/kg, Compound 25 over Compound 24) is reported as “improved bioavailability”.
